“Also recorded” adds a separate entry of the source. Like-named read-outs stand apart in the source and are kept apart here.
Legend:
Drosophila melanogaster [1] = experiment: Longevity of adult flies raised on food containing sweeteners; assay type: in vivo; details: repeat study, blue-dyed food with 0.0238 g/ml sweetener, FIG. 3
Procedure: All animals were cultured at 25° C., kept at 50-60% humidity, and were raised under a standard 12:12 light dark cycle. For each experimental treatment, n=30 flies were tested in groups of 10 per tube, and three tubes per treatment. Tubes were kept on their side to minimize subject becoming mired in the food. Foods were replaced twice a week. The total number of fruit flies used for these experiments was 780, with 300 used for two initial trials testing mortality among store-brand sweeteners, 210 used for repeating this with blue dye and pure erythritol, 120 for choice trials and 150 for concentration trials.
Standard Drosophila food for larval culturing consisted of water, cornmeal, yeast, molasses, and agar, as previously described (Chakraborty, et al., 2011, PLoS ONE 6: e20799). […] The addition of cornmeal and yeast assured the flies still received sufficient carbohydrates and protein in addition to any effects of the treatment additives.
Drosophila food was combined with an equal weight/volume (0.0238 g/ml) of one non-nutritive sweetener (TRUVIA, EQUAL, SPLENDA, SWEET'NLOW, or PUREVIA) or a control nutritive sweetener (controls: sucrose or corn syrup). Wild type (Canton S) larvae were initially raised on the standard food, and 0-12 hour old adult flies were transferred to foods containing one non-nutritive sweetener or a control treatment. […] The number of dead flies were scored daily.

Drosophila melanogaster [2] = experiment: Erythritol concentration trials, fly longevity; assay type: in vivo
Procedure: Standard fly foods were prepared as previously described, and then were treated with 2M, 1M, 0.5M and 0.1M concentrations of erythritol, using 0.5M sucrose as control. 0 to 24 hour-old Drosophila were placed on these foods and mortality was recorded daily for 35 days as above. Analyses were conducted with SPSS software v. 20 (IBM corporation 2011). Fly longevity data were analyzed using survival analysis with right-hand censoring of subjects that lived to the end of the study or were lost for reasons other than death. Test were run for differences in survival distributions [Pr(flies alive) versus insect age] using the log-rank (Mantel-Cox) test to make all pairwise comparisons among treatments within each experiment.

Drosophila melanogaster [3] = experiment: Two-way food choice experiments, fly longevity; assay type: in vivo; details: FIG. 5
Procedure: Foods containing 2 M erythritol, 1M erythritol and 1M sucrose were prepared for paired presentations in open choice tests. In each treatment one food type contained 0.05% brilliant blue FCF (Fisher 50-727-25). The blue dye allowed visual confirmation of feeding on the dyed food in the pair. The flies were presented with access to two food choices by using a modified cotton stopper with approximately a 1.5 cm diameter hole to connect each pair of food tubes.
The final choice treatment was between blue 2M erythritol food and non-blue 1M sucrose food (this treatment provides a comparison with the 1M erythritol/1M erythritol treatment as a test of dilution of toxicity by alternative food sources; blue guts would confirm erythritol was being consumed in the presence of sucrose). The number of flies with visible blue gut contents and mortality daily were recorded for 30 days.
Analyses were conducted with SPSS software v. 20 (IBM corporation 2011). Fly longevity data were analyzed using survival analysis with right-hand censoring of subjects that lived to the end of the study or were lost for reasons other than death. Test were run for differences in survival distributions [Pr(flies alive) versus insect age] using the log-rank (Mantel-Cox) test to make all pairwise comparisons among treatments within each experiment.

fruit flies [4] = experiment: Comparison of erythritol with other human-safe sweet alcohols, fly longevity; assay type: in vivo, Drosophila melanogaster; details: 17 days; for longevity, erythritol treatment versus the other treatments: FIG. 6
Procedure: An experiment was conducted to compare the effectiveness of erythritol with other human-safe sweet alcohols: D-mannitol, maltitol, sucrose, and xylitol. The concentration of all sweet alcohols were 1M.
Flies were raised for 17 days on standard fly food that contained 1 M concentrations of each sweetener treatment. Death of flies was recorded daily as before; each treatment was replicated on three vials of 10 flies each for 30 subjects/treatment. Differences in longevity were analyzed using the Kaplan-Meier survival analysis log rank test, making all pairwise comparisons among treatments.

R. flavipes workers = assay type: in vivo, Reticulitermes flavipes
Procedure: Termites used in the survival and choice experiments were collected from three field colonies in Scotland Run Park (39.66° N, 75.05° W) in Clayton, N.J. between April and May 2019. After collection, colonies were maintained in plastic containers with soil and wood from the collection site as a substrate in laboratory conditions (20.8±0.9° C., 49±7% RH). Termites used in the consumption experiment were collected from a single field colony at Cobb's Creek Park (39.94° N, 75.24° W) in Philadelphia, Pa. during September of 2018. Workers were removed from the log and housed within 24 h of collection in 9 cm diameter petri dishes containing damp paper towel as a food source. Dishes were placed in an incubator at 26° C. (relative humidity varied between 40 and 60% across trials, but was consistent among all treatments within each trial). Each petri dish contained 10 workers. Termites used in all experiments measured 3-4 mm in length.
For the survival experiment, unbleached, brown paper towels (12 cm×24 cm, cat no. 01801, Kimberly-Clark Corporation, Neenah, Wis.), were completely submerged for 15 s in solution of distilled water, erythritol (100% purity, NOW foods, Bloomingdale, Ill.) of the below-specified concentrations, and 0.05% Brilliant Blue R-250 dye (cat. no 27816, Sigma-Aldrich, St. Louis, Mo.). The erythritol concentrations used were: 0 M (control), 0.25 M, 0.5 M, 0.75 M, 1.0 M, and 1.25 M. The treated paper towels were removed from solution and allowed to dry horizontally on racks before being cut into squares with an area of 144 cm^2. Papers were thereafter stored dry at room temperature in sealed containers.
Prior to the beginning of the experiment, termites were allowed to acclimate for 3 d to the petri dishes, in order to control for any death due to injury incurred during movement to the petri dishes; this was called the pretrial period. At the beginning of the pretrial period, termites used in the survival experiment were transferred from sections of natural nest kept in laboratory rearing boxes to 9 cm diameter plastic petri dishes lined with brown, unbleached paper towel (12 cm×24 cm) not treated with erythritol. The paper towel was rehydrated with 1 ml of distilled water. Each dish contained 10 workers. After the third (final) day of the pretrial period, dishes were checked for dead termites, assumed to be dead due to injury, and dead termites were replaced with live individuals from a petri dish of extra termites kept in similar conditions.
Following the pretrial period, the experiment was set up: pretrial paper towels were removed and replaced with treated paper towels of the correct erythritol treatment concentration; these were rehydrated with 750 μL of distilled water. Six treatment groups (0 M, 0.25 M, 0.5 M, 0.75 M, 1.0 M, 1.25 M erythritol) were used per colony (n=3 colonies), with three dishes per treatment, each containing 10 termite workers (n=30 workers/treatment/colony, n=540 total workers). Termite mortality was recorded every 24 h for 8 d.
Analyses were performed using SPSS v. 24 (IBM corp. 2016) and. Sigmaplot v.12.5 (Systat Software 2013) software. Differences in survival distributions across concentrations for all colonies, within the colonies, and across colonies were tested using pairwise log-rank Mantel Cox tests in SPSS, with subjects living to the end of the trial or lost to reasons other than death (e.g., escaped or injured) included in the analysis as right-censored values. Mean percent mortality was calculated for each concentration across colonies at 72 and 96 h and a three parameter, best-fit sigmoid curve was fitted to the data in Sigmaplot to assess LC at these time points.

fruit flies [5] = details: 0.5 M erythritol food, previous work; cited from earlier work
[6] = 1 M sweetener in standard fly food

Compound: OC[C@@H](O)[C@@H](O)CO [erythritol, (2R,3S)-butane-1,2,3,4-tetraol]
- longevity compared to PUREVIA, EQUAL, sucrose and corn syrup (Drosophila melanogaster [1]): significant decrease in longevity
- longevity compared to control food (Drosophila melanogaster [2]; 0.1M erythritol in food, observations terminated at 35 days): no significant difference in longevity
- longevity with increasing erythritol concentration (Drosophila melanogaster [2]; 0.1M, 0.5M, 1.0M and 2.0M in food, 35 days, FIG. 4): significant decrease in longevity; also recorded: dose-dependent reduction in longevity
- longevity compared to control food containing 0.5M sucrose (Drosophila melanogaster [2]; 0.5M erythritol in food): significant reductions in longevity
- longevity compared to control food containing 0.5M sucrose (Drosophila melanogaster [2]; 1M erythritol in food): significant reductions in longevity
- longevity compared to all other treatments (Drosophila melanogaster [2]; 2M erythritol in food): significant and severe effect on longevity
- longevity relative to sucrose:sucrose choice (Drosophila melanogaster [3]; choice between 1M sucrose and 1M erythritol): significant decrease in longevity; also recorded: significantly decreased longevity
- longevity relative to sucrose:sucrose choice (Drosophila melanogaster [3]; choice between 1M sucrose and 2M erythritol): significant decrease in longevity; also recorded: significantly reduced
- toxicity to fruit flies upon ingestion (fruit flies [4]; 1 M in standard fly food): toxic to fruit flies upon ingestion
- mean longevity (fruit flies [4]; [6]): 4.7 ± 0.15 days
- longevity, erythritol treatment versus the other treatments (fruit flies [4]; [6]): significantly lower; also recorded: significantly shorter longevity
- reduction in mean longevity (R. flavipes workers; 0.25 M to 0.5 M): 1.74 days
- reduction in mean longevity (R. flavipes workers; 0.5-0.75 M): 0.23 days
- reduction in mean longevity (R. flavipes workers; 0.75-1.0 M): 0.26 days
- reduction in mean longevity (R. flavipes workers; 1.0-1.25 M): 0.14 days
- concentration at which significant effects on longevity start (R. flavipes workers; R. flavipes workers, 8 d): 0.25 M
- reduction in mean longevity (R. flavipes workers; concentration increased from 0 M to 0.25 M, FIG. 10): 3.77 days
- time of exposure to reach 50% mortality (R. flavipes workers; termites, 0.5 M erythritol filter papers): ≤ 2 days
- time of exposure to reach 50% mortality (fruit flies [5]): 20 days

Compound: OC[C@@H](O)[C@H](O)[C@@H](O)CO [xylitol]
- longevity compared to sucrose (sugar) control (fruit flies [4]; [6]): did not differ from sugar control; also recorded: did not differ from the control; also recorded: not effective at reducing fly longevity
- longevity, erythritol treatment versus the other treatments (fruit flies [4]; [6]): significantly greater longevity than erythritol-fed flies

Compound: OC[C@@H](O)[C@@H](O)[C@H](O)[C@H](O)CO [D-mannitol]
- longevity compared to sucrose (sugar) control (fruit flies [4]; [6]): did not differ from sugar control; also recorded: slightly but significantly reduced longevity; also recorded: almost insignificant insecticidal effect
- longevity, erythritol treatment versus the other treatments (fruit flies [4]; [6]): significantly greater longevity than erythritol-fed flies

Compound: OC[C@H]1O[C@@](CO)(O[C@H]2O[C@H](CO)[C@@H](O)[C@H](O)[C@H]2O)[C@@H](O)[C@@H]1O [sucrose]
- longevity, erythritol treatment versus the other treatments (fruit flies [4]; [6]): significantly greater longevity than erythritol-fed flies

Compound: OC[C@@H](O)[C@@H](O[C@H]1O[C@H](CO)[C@@H](O)[C@H](O)[C@H]1O)[C@H](O)[C@@H](O)CO [maltitol]
- longevity compared to sucrose (sugar) control (fruit flies [4]; [6]): did not differ from sugar control; also recorded: did not differ from the control; also recorded: not effective at reducing fly longevity
- longevity, erythritol treatment versus the other treatments (fruit flies [4]; [6]): significantly greater longevity than erythritol-fed flies
